Data from US11603570B2, “Methods for the detection and treatment of leukemias that are responsive to DOT1L inhibition” (MEMORIAL SLOAN KETTERING CANCER CENTER, priority 2013, dated 2023).
Entries after “also recorded” stand apart in the source; their conditions may differ.

Assays:
[1] = system: MLL-AF9 transformed cells; test: Annexin V apoptosis in MLL-AF9 transformed cells; assay type: cell-based, mouse; settings: 10 μM, 10 days; FIG. 8B
Description: (§1) The percentage of Annexin V positive cells is shown.
(§2) Apoptosis was assessed by staining cells with Annexin V 10 days after treatment. The extent of apoptosis was compared to that found in MLL-AF9 transformed cells treated in a similar fashion.

[2] = system: HOXA9/MEIS1 transformed cells; test: Sensitivity of HOXA9/MEIS1 transformed cells; assay type: cell-based, murine
Molm-13 = settings: Daigle, 2011; cited from earlier work
[3] = system: Npm1^cA/+Rosa^SB/+ AML cells; test: Leukemia initiating potential in vivo, mice injected with pre-treated Npm1^cA/+Rosa^SB/+ cells; parameters: species or system mouse
Source text: FIGS. 13A-13C show the effects of DOT1L inhibition on leukemia initiating potential in vivo. […] FIG. 13B indicates differentiation in EPZ00477 treated cells (and not in cells exposed to only DMSO). […] Numbers of white blood cells and platelets are expressed as number of cells per microliter (μL) of blood. Hemoglobin levels are expressed in grams per deciliter (g/dl).
Furthermore, peripheral blood smears stained with Wright-Giemsa stain indicate differentiation in EPZ00477 treated cells (and not in cells exposed to only DMSO) (FIG. 13B).

MLL xenograft = settings: in vivo administration; cited from earlier work
OCI-AML3 [4] = test: Apoptosis and cell cycle in OCI-AML3 cells
[5] = system: NUP98-NSD1 transformed cells; test: Annexin V apoptosis in NUP98-NSD1 transformed cells; assay type: cell-based, mouse; settings: 10 μM, 10 days; compared with MLL-AF9 transformed cells; FIG. 8B
Description: as §1, §2

HOXA9 and MEIS1 = settings: cited from earlier work
Jurkat = settings: Daigle, 2011; cited from earlier work
OCI-AML3 [6] = test: Proliferation of OCI-AML3 (NPM1 mutant) cells; assay type: cell-based, human
Description: as §2
Cell numbers were assessed at multiple time points after treatment was initiated. […] Evidence of differentiation was assessed after DOT1L inhibition via characterization of cell surface marker expression—such as CD11b and CD15 expression, both of which are induced upon differentiation of myelomonocytic leukemia cells.
MTT assays were performed on day 11.

other methyltransferases = settings: in words; FIG. 1B; cited from earlier work
MV4-11 = settings: Daigle, 2011; cited from earlier work
[7] = day 19 complete blood counts, FIG. 13C

## CC(C)N(CCCNC(=O)Nc1ccc(C(C)(C)C)cc1)C[C@H]1O[C@@H](n2ccc3c(N)ncnc32)[C@H](O)[C@@H]1O [EPZ004777, 1-(3-((((2R,3S,4R,5R)-5-(4-Amino-7H-pyrrolo[2,3-d]pyrimidin-7-yl)-3,4-dihydroxytetrahydrofuran-2-yl)methyl)(isopropyl)amino)propyl)-3-(4-(tert-butyl)phenyl)urea]
[1]
  apoptosis (Annexin V staining): induces apoptosis
[2]
  sensitivity to DOT1L inhibition: insensitive
Molm-13
  growth of the MLL-AF9 cell line Molm-13: exquisitely sensitive
[3]; cells pre-treated 6 days with 10 μM, FIG. 13A
  survival (Kaplan-Meier): extended survival time; also recorded: prolonged survival
[3]; day 19, cells pre-treated 6 days with 10 μM, FIG. 13B
  peripheral blood smears, Wright-Giemsa stain: differentiation
[3]; [7]
  levels of hemoglobin: slight increase
  number of white blood cells: significant reduction
  platelet counts: slight increase
MLL xenograft
  survival: prolonged survival; also recorded: extension of survival
OCI-AML3 [4]
  cell cycle status by flow cytometry: Sub G1 accumulation
OCI-AML3 [4]; 10 μM, 4, 7, or 10 days, FIG. 11A
  apoptotic cells (Annexin V staining): tremendous increase in apoptotic cells; also recorded: apoptosis
[5]
  apoptosis (Annexin V staining): more apoptosis; also recorded: induces apoptosis
HOXA9 and MEIS1
  MLL fusion driven gene expression, including HOXA9 and MEIS1: transcriptional repression; also recorded: dose-dependent inhibition
Jurkat
  growth of MLL-germline Jurkat cells: unaffected
OCI-AML3 [6]; 10 μM, compared with MLL-translocated line (Molm-13), FIG. 7C, 10
  proliferation / cell number versus DMSO: as sensitive; also recorded: equally, if not more sensitive; also recorded: dramatically inhibited
OCI-AML3 [6]; Homo sapiens, OCI-AML-3, 264 h, MTT assays on day 11, concentrations up to 10 μM
  IC50: 150 nM
Other methyltransferases
  specificity for DOT1L / H3K79me as compared to other methyl transferases: highly specific; also recorded: remarkable specificity
MV4-11
  growth of MV4-11 leukemia cells: exquisitely sensitive
